# Literature values, collected in patent publication US20230134563A1, “SUBLINGUAL CANNABINOID COMPOSITIONS” (ALVIT LCS PHARMA LTD., priority 2017, published 2023).
# Conditions: single component (oil or surfactant)
smiles,measurement,value
"CCCCCc1cc(O)c2c(c1)OC(C)(C)[C@@H]1CCC(C)=C[C@@H]21 [THC, tetrahydrocannabinol]",HLB,0.754
